Data from US7468384B2, “Microbicidal composition” (Rohm and Haas Company, priority 2004, dated 2008).

Experiments:
Format in all cases: cell-based
S. aureus 6538 = experiment: Synergy test, microtiter plate high resolution MIC assay, bacterium; conditions: S. aureus 6538, TSB
Source text: (§1) One measure of synergism is the industrially accepted method described by Kull, F. C.; Eisman, P. C.; Sylwestrowicz, H. D. and Mayer, R. L., in Applied Microbiology 9:538-541 (1961), using the ratio determined by the formula: Qa/QA+Qb/QB=Synergy Index (“SI”) wherein: • QA=concentration of compound A (first component) in ppm, acting alone, which produced an end point (MIC of Compound A). • Qa=concentration of compound A in ppm, in the mixture, which produced an end point. • QB=concentration of compound B (second component) in ppm, acting alone, which produced an end point (MIC of Compound B). • Qb=concentration of compound B in ppm, in the mixture, which produced an end point.
(§2) When the sum of Qa/QA and Qb/QB is greater than one, antagonism is indicated. […] The lower the SI, the greater the synergy shown by that particular mixture. The minimum inhibitory concentration (MIC) of a microbicide is the lowest concentration tested under a specific set of conditions that prevents the growth of added microorganisms.
(§3) Synergy tests were conducted using standard microtiter plate assays with media designed for optimal growth of the test microorganism. Soybean Casein Digest Broth (Tryptic Soy Broth, TSB medium) or minimal salt medium supplemented with 0.2% glucose and 0.1% yeast extract (M9GY medium) was used for testing bacteria; Potato Dextrose Broth (PDB medium) was used for testing yeast and mold. In this method, a wide range of combinations of microbicides was tested by conducting high resolution MIC assays in the presence of various concentrations of MI. High resolution MICs were determined by adding varying amounts of microbicide to one column of a microtitre plate and doing subsequent ten-fold dilutions using an automated liquid handling system to obtain a series of endpoints ranging from 2 ppm to 10,000 ppm active ingredient.

[1] = tested on: Aspergillus niger (A. niger—ATCC 16404); experiment: Synergy test, microtiter plate high resolution MIC assay, mold; design: key to SI (calculated synergy index) / SI (synergy index): SI = Qa/QA + Qb/QB (mixture vs. alone end-point concentrations); conditions: A. niger 16404, PDB
Source text: as §1, §2, §3
(§4) For MI combinations, the synergy of the combinations of the present invention was determined against two bacteria, Escherichia coli (E. coli—ATCC #8739) or Pseudomonas aeruginosa (P. aeruginosa—ATCC #15442), a yeast, Candida albicans (C. albicans—ATCC 10231), and a mold, Aspergillus niger (A. niger—ATCC 16404). The bacteria were used at a concentration of about 5×10^6 bacteria per mL and the yeast and mold at 5×10^5 fungi per mL. These microorganisms are representative of natural contaminants in many consumer and industrial applications. […] (bacteria).
(§5) For BIT combinations, the synergy of the combinations of the present invention was determined against a bacterium, Pseudomonas aeruginosa (P. aeruginosa—ATCC #15442), a yeast, Candida albicans (C. albicans—ATCC 10231), and a mold, Aspergillus niger (A. niger—ATCC 16404). The bacteria were used at a concentration of about 5×10^6 bacteria per mL and the yeast and mold at 5×10^5 fungi per mL. These microorganisms are representative of natural contaminants in many consumer and industrial applications. […] (yeast and mold) or 30° C. (bacteria).

[2] = tested on: Escherichia coli (E. coli—ATCC #8739); experiment: Synergy test, microtiter plate high resolution MIC assay, bacterium; conditions: E. coli 8739, M9GY, 24 hours
Source text: as §1, §2
as §3, with “In this method, a wide range of combinations of microbicides was tested by conducting high resolution MIC assays in the presence of various concentrations of MI.” left out
as §4

[3] = tested on: Pseudomonas aeruginosa (P. aeruginosa—ATCC #15442); experiment: as above; design: key to SI (calculated synergy index) / SI (synergy index): SI = Qa/QA + Qb/QB (mixture vs. alone end-point concentrations); conditions: for SI (calculated synergy index) / Qb: end-point activity (MIC) of second component in the mixture (alone, QB, where Qa = 0): Table 6; for Qb: end-point activity (MIC) of second component in the mixture (alone, QB, where Qa = 0): B = Cocamidopropyl PG-dimonium chloride phosphate
Source text: as §1, §2, §3, §4, §5

[4] = tested on: Candida albicans (C. albicans—ATCC 10231); experiment: Synergy test, microtiter plate high resolution MIC assay, yeast; conditions: C. albicans 10231, PDB, 24 hours
Source text: as §1, §2, §3, §4, §5

[5] = P. aeruginosa 15442, TSB, 48 hours
[6] = P. aeruginosa 15442, M9GY, 72 hours

Molecule: OCC(O)COc1ccc(Cl)cc1 (stereo not drawn) [Chlorphenesin]
- MIC of component acting alone (QA / QB) (S. aureus 6538; 48 hours): 5000 ppm
- MIC of component acting alone (QA / QB) ([1]; 4 days): 2000 ppm
- Qb ([1]; chlorphenesin concentration giving end point (MIC), alone or mixed with BIT, 1 week): 2000 ppm
- SI ([1]; synergy index BIT + chlorphenesin, 1 week): 1.00
- MIC of component acting alone (QA / QB) [2]: 2000 ppm
- MIC of component acting alone (QA / QB) ([3]; P. aeruginosa 15442, M9GY, 48 hours): 4000 ppm
- MIC of component acting alone (QA / QB) [3, 5]: 8000 ppm
- Qb ([3]; chlorphenesin concentration giving end point (MIC), alone or mixed with BIT, P. aeruginosa 15442, M9GY, 72 hours): 8000 ppm
- SI ([3]; synergy index BIT + chlorphenesin, P. aeruginosa 15442, M9GY, 72 hours): 1.00
- MIC of component acting alone (QA / QB) [4]: 2000 ppm

Molecule: Cocamidopropyl PG-dimonium chloride phosphate
- SI (calculated synergy index) (S. aureus 6538; Table 6, 24 hours): 1.00
- Qb: end-point activity (MIC) of second component in the mixture (alone, QB, where Qa = 0) (S. aureus 6538; Table 6, 24 hours, B = Cocamidopropyl PG-dimonium chloride phosphate): 30 ppm
- SI (calculated synergy index) ([1]; Table 6, 4 days): 1.00
- Qb: end-point activity (MIC) of second component in the mixture (alone, QB, where Qa = 0) ([1]; Table 6, 4 days, B = Cocamidopropyl PG-dimonium chloride phosphate): 1000 ppm
- SI (synergy index) ([1]; Table 22, 1 week): 1.00
- Qb (second component at end point, MIC) ([1]; Table 22, Cocamidopropyl PG-dimonium chloride phosphate with BIT, 1 week, alone where Qa = 0): 3000 ppm
- SI (calculated synergy index) [3, 6]: 1.00
- Qb: end-point activity (MIC) of second component in the mixture (alone, QB, where Qa = 0) [3, 6]: 30 ppm
- SI (calculated synergy index) [3, 5]: 1.00
- Qb: end-point activity (MIC) of second component in the mixture (alone, QB, where Qa = 0) [3, 5]: 1000 ppm
- Qb (second component at end point, MIC) ([3]; Table 22, Cocamidopropyl PG-dimonium chloride phosphate with BIT, P. aeruginosa 15442, M9GY, 72 hours, alone where Qa = 0): 40 ppm
- SI (synergy index) ([3]; Table 22, P. aeruginosa 15442, M9GY, 72 hours): 1.00
- SI (calculated synergy index) ([4]; Table 6): 1.00
- Qb: end-point activity (MIC) of second component in the mixture (alone, QB, where Qa = 0) ([4]; Table 6, B = Cocamidopropyl PG-dimonium chloride phosphate): 100 ppm
